According to patent publication US20230227546A1, “TYPE 2 CYTOKINES AS PREDICTORS OF DISEASE SEVERITY AND/OR AS T[…] FOR COVID-19” (priority 2020, published 2023):

Test system: COVID-19
Format: in vivo, human

Substance: Dupilumab: anti-human IL4Rα monoclonal antibody that blocks IL-13 and IL-4 signaling; sold as DUPIXENT
- Deceased (number of patients) With Concurrent Dupilumab (31 patients): 0
- Ventilated (number of patients) With Concurrent Dupilumab (31 patients): 0
- Hospitalized (number of patients) With Concurrent Dupilumab (31 patients, values less than 20 suppressed): <20
- Odds Ratio, Hospitalized (Dupilumab vs matched controls 1:5, conditional logistic regression): 0.64
- rate of death (compared to matched controls): lower rate
- rate of hospitalization (compared to matched controls): lower rate
- rate of ventilation (compared to matched controls): lower rate
